Earlier results as cited in US20230000809A1, “TREATMENT OF DISORDERS ARISING FROM GENETIC MUTATION” (priority 2021, published 2023).
Where a name gives a salt, the structure may show the parent alone.

How the values were obtained:
[1] = tested on: gadolinium enhancing lesions; settings: RRMS patients; after 24 weeks of treatment as compared to placebo
[2] = tested on: nuclear factor kappa B (NF-κB)-dependent transcription of TNF-α induced genes; settings: human endothelial cells, in vitro

Compound: COC(=O)/C=C/C(=O)OC [BG-12]
- number of gadolinium enhancing lesions [1]: significant reduction

Compound: COC(=O)/C=C/C(=O)OC [DMF, dimethyl fumarate]
- effect on NF-κB-dependent transcription of TNF-α induced genes [2]: inhibitory effect
